This note sets out measurements from patent publication US11654126B2, “Method of inhibiting the proliferation of T and/or B lymphocytes via dimethylarginine derivatives and lymphocytes proliferation inhibitor” (GUANGZHOU MEDICAL UNIVERSITY, priority 2019, dated 2023).

Entries after “also recorded” stand apart in the source; their conditions may differ.

Assay [1] concerns human T cells. Kind of assay: DMGV human T cell proliferation (anti-CD3/anti-CD28 activation). To be noted: 3 days, FIG. 6D. Format: cell-based. How it is done:
(§1) Mouse or human T cells were activated by anti-CD3 and anti-28 antibodies with none, DMGV (10 μM), or DMGV+MitoQ (100 nM) for 3 days and proliferation was measured by flow cytometry. The results are shown in FIG. 6C and FIG. 6D, respectively.

The test system of assay [2] is T cells. Nature of the assay: Effect of MitoQ on T cell proliferation in vitro with ADMA/SDMA. It is filed as cell-based, mouse. The conditions noted are these: MitoQ 100 nM + ADMA/SDMA 1 μM vs ADMA/SDMA group; 3 days; FIG. 4D. How it is done: After incubating MitoQ and ADMA/SDMA together with T cells up to 3 days, flow cytometry was used to investigate the effect on the T cells proliferation in vitro.
Experimental groups: Control, ADMA/SDMA (1 μM), and ADMA/SDMA (1 μM)+MitoQ (100 nM).

For assay [3], the system named is human peripheral T cells. Nature of the assay: DMGV-induced ROS in human T cells (flow cytometry). The conditions noted are these: 1 h, FIG. 6B. Format: cell-based. How it is done:
(§2) DMGV was synthesized as described in the literature (for specific preparation procedures, refer to J. Mass Spectrom. 2012, 47, 1594; Anal. Biochem. 2011, 419, 234). Mouse and human T cells were treated with none, or DMGV (10 μM), or DMGV+MitoQ (100 nM) for 1 h and ROS was measured by flow cytometry. The results are shown in FIG. 6A and FIG. 6B, respectively.

Assay [4] has as its system mouse T cells. Nature of the assay: ROS generation in T cells (CellROX Green, flow cytometry). It is filed as cell-based. The protocol:
For flow cytometry, T cells were stained with 5 μM CellROX Green Reagent (Life Technologies) for 30 min at 37° C. in the presence or absence of ADMA or SDMA (5 μM), and then washed with 1×PBS once. MitoQ (100 nM) was added with ADMA and SDMA. Cells were resuspended in 300 μl of PBS before the analysis by flow cytometry.
Experimental Groups: ADMA alone, SDMA alone, or ADMA/SDMA (ADMA/SDMA represents the mixture of ADMA and SDMA herein) was used at the final concentration of 1 μM, MitoQ was used either at 10 nM or 100 nM.
In general terms: Flow cytometry measures light scatter and fluorescence of single cells or particles in a stream.

Assay [5] has as its system mouse splenic T cells. Kind of assay: DMGV-induced ROS in mouse T cells (flow cytometry). Format: cell-based. The conditions noted are these: 1 h, FIG. 6A. How it is done:
as §2

Assay [6] has as its system SKG mice arthritis. Nature of the assay: Arthritis in beta-glucan injected SKG mice. It is filed as in vivo. To be noted: SKG mice with score 8 or above; DMGV 750 μg/mouse in the peritoneum up to 50 days; N=7, P=0.0006 (2-way ANOVA); FIG. 7. The protocol:
SKG mice (purchased from CLEA Japan, Inc.) develop arthritis because a mutation in the ZAP-70 gene, which causes activation of T cells. SKG mice were injected with beta-glucan (30 mg/mouse, Sigma) to accelerate development of arthritis and the arthritis score was calculated as described in the literature (for specific preparation procedures, refer to Yoshitomi, H, J. Exp Med. 2005). Mice that reached the arthritis score of 8 or above in less than 2 months were selected and treated with DMGV (750 μg/mouse) twice a week up to 50 days.

The subject of assay [7] is mouse T cells. Kind of assay: DMGV mouse T cell proliferation (anti-CD3/anti-CD28 activation). To be noted: 3 days, FIG. 6C. It is filed as cell-based. The protocol:
as §1

In assay [8] the test system is mouse B cells. Nature of the assay: Mouse B cell proliferation assay (splenocytes, IL-4 + anti-IgM, CellTrace Violet). It is filed as cell-based. The conditions noted are these: 5 μM; for B cells proliferation: P<0.01; for number of live B cells / number of divided B cells: after 4 days; for number of live B cells: FIG. 3A; for number of divided B cells: FIG. 3B. How it is done:
Spleens were harvested, mechanically disrupted, and resuspend in RPMI 1640 complete medium (10% FBS).
Total splenocytes were then labeled with the proliferation dye CellTrace Violet according to the manufacturer's protocol. Then splenocytes (1×10^5 cells per well in flat bottom 96 well plate) were stimulated with recombinant human IL-4 ([…] and α-mouse IgM (10 μg/ml), and expanded in RPMI1640 medium up to 5 days. Dilution of CellTrace Violet was then evaluated by flow cytometry. (Note; splenocytes contain T cells and monocytes, which will die off during the assay period.)
Experimental group: ADMA or SDMA (5 μM) was added (ADMA and SDMA dissolved in sterile endotoxin-free water, the storage solution concentration is 0.5 mM). Control group: the same volume of sterile endotoxin-free water without ADMA or SDMA was added.

The test system of assay [9] is mouse T cells. Kind of assay: Mouse T cell proliferation assay (anti-CD3/CD28 beads, CellTrace Violet, flow cytometry). Format: cell-based. To be noted: 1 μM and 5 μM; for survival rate of cells / number of divided T cells: 3 days of stimulation, vs control group; for survival rate of cells: FIG. 1A; for number of divided T cells: FIG. 1B; for proliferation of mouse T cells: P<0.001. How it is done: Total splenic T cells were isolated by StemCell isolation kit: From female 6-8 weeks old C57BL mice, spleens were harvested, mechanically disrupted, and incubated with a biotinylated antibody cocktail consisting of antibodies to B220, CD11b, CD11c, CD16/32, CD19, CD25, CD105, NK1.1, and TCRγδ (StemCell). After a wash step, cells were incubated with streptavidin-coated magnetic nanoparticles (StemCell). CD3^+ cells were then isolated by applying a magnetic field and collecting the unbound cells.
The total T cells obtained in step 1 were labeled with the proliferation indicator dye CellTrace Violet according to the manufacturer's protocol, and then seeded in 96-well round bottom cell culture plates at 2×10^5 per well, next the cells were stimulated with anti-CD3 and anti-CD28 antibody coated magnetic beads (Gibco Dynabeads mouse T-activator CD3/CD28 for T-cell expansion and activation) with the beads to cells ratio of 1:4, and then expanded in RPMI-1640 medium up to 4 days, and dilution of CellTrace Violet was then evaluated by flow cytometry.
Experimental group: different concentrations of ADMA or SDMA were added (ADMA and SDMA dissolved in sterile endotoxin-free water, and the concentration of the storage solution is 0.5 mM); Control group: the same volume of sterile endotoxin-free water was added without ADMA or SDMA.

Assay [10] concerns human T cells. Kind of assay: Human T cell in vitro proliferation assay (anti-CD3/anti-CD28, CellTrace Violet). It is filed as cell-based. The conditions noted are these: 1 μM; for proliferation of human T cells: P<0.001; for number of divided T cells: human T cells, after 4 days of culture, FIG. 2. From the text:
Human T cell isolation and in vitro proliferation experiments: the use of blood from healthy adult blood donors was approved by the Ethics Committee of the Medical Faculty of Guangzhou Medical University, Guangzhou, China. Peripheral blood mononuclear cells (PBMCs) were isolated using Sepmate PBMC isolation tubes following the manufacturer's instructions (StemCell). CD3^+ human T cells were positively isolated by magnetic cell sorting (Miltenyi Biotec, Bergisch-Gladbach, Germany). Purified T cells were labeled with the proliferation dye CellTrace Violet according to the manufacturer's protocol. Then the cells (1×10^5 cells per well in flat bottom 96 well plate) were stimulated in vitro with immobilized anti-CD3 (5 μg/ml) and anti-CD28 (2 μg/ml) antibody (Biolegend, San Diego, USA), and expanded in RPMI1640 medium up to 5 days. Dilution of CellTrace Violet, indicating proliferation, was then evaluated by flow cytometry.

Assay [11] concerns activated human T cells. Nature of the assay: Proliferation of activated human T cells (compound added 24 h after anti-CD3/CD28 stimulation). Format: cell-based. To be noted: ADMA 1 μM; for inhibitory effect compared with other substances / number of live cells / T cell proliferation: PD404182 100 nM; for inhibitory effect compared with other substances / number of live cells: rapamycin 50 nM; for number of live cells: 24 h and 48 h after addition, vs control, FIG. 5A, 5B; for T cell proliferation: activated human T cells. How it is done: Human T cells were stimulated with anti-human CD3 and CD28 for 24 hours. […] Flow cytometry was used to analyze the number of live cells and the number of divided cells. The results are shown in FIG. 5A and FIG. 5B, respectively.

Setting [12] is: ADMA or SDMA alone vs none, 2 hours, FIG. 4A.

With `COC1=C(OC)C(=O)C(CCCCCCCCCC[P+](c2ccccc2)(c2ccccc2)c2ccccc2)=C(C)C1=O` [MitoQ, reference compound], the “effect on inhibition of proliferation by DMGV” value in [1] (DMGV 10 μM plus MitoQ 100 nM) is “inhibited by MitoQ”. In addition, the “effect on inhibition of T cells proliferation by ADMA/SDMA” value in assay [2] was “significantly prevent the inhibitory effect of ADMA and SDMA on T cells proliferation”. For the same compound, the “effect on DMGV-induced ROS” value in assay [3] (DMGV 10 μM plus MitoQ 100 nM) and in [5] (DMGV 10 μM plus MitoQ 100 nM) was “inhibited by MitoQ” in each case. In addition, the ROS entry in assay [4] (MitoQ (100 nM) with ADMA/SDMA vs ADMA/SDMA alone, FIG. 4B) is given as “decreased significantly”.
With dimethylguanidino valeric acid [DMGV], the proliferation result in assay [1] (DMGV 10 μM) and in assay [7] was “inhibited proliferation” in each case. Moreover, in [6], the arthritis score entry was “significantly decreased the arthritis score in all mice”. For the same compound, the ROS result in assay [3] (DMGV 10 μM) and in assay [5] (DMGV 10 μM) was “induces ROS” throughout.
In the case of `CN=C(NC)NCCC[C@H](N)C(=O)O` [SDMA, symmetric dimethylarginine], in assay [8], the B cells proliferation result is listed as “significantly inhibit B cells proliferation”; the “number of live B cells” value is given as “reduced the number of live”; the “number of divided B cells” value was “reduced the number of live (FIG. 3A) and divided B cells”. Moreover, in [9], the “survival rate of cells” value is recorded as “reduced the survival rate of cells”, the “number of divided T cells” value is on record as “resulted in the reduction of the number of divided T cells” and the “proliferation of mouse T cells” value is “significantly inhibit the proliferation of mouse T cells”. Also, the ROS entry in [4] (setting [12]) was “ROS was significantly induced”. In assay [10], the “proliferation of human T cells” value is “inhibit proliferation of human T cells significantly” and the “number of divided T cells” value is reported as “reduced the number of divided T cells”.
In the case of `CN(C)C(N)=NCCC[C@H](N)C(=O)O` [ADMA, asymmetric dimethylarginine], in assay [8], the B cells proliferation entry is reported as “significantly inhibit B cells proliferation”; the “number of live B cells” value was “reduced the number of live”; the “number of divided B cells” value was “reduced the number of live (FIG. 3A) and divided B cells”. In assay [9], the “survival rate of cells” value is on record as “reduced the survival rate of cells”, the “number of divided T cells” value is recorded as “resulted in the reduction of the number of divided T cells” and the “proliferation of mouse T cells” value is reported as “significantly inhibit the proliferation of mouse T cells”. Moreover, in assay [11], the “inhibitory effect compared with other substances” value is given as “better than PD404182; also recorded: superior to the mTOR inhibitor rapamycin”, the “number of live cells” value is “the number of live cells declined” and the T cell proliferation result was “can inhibit T cell proliferation”. The “number of divided cells of T cells” value in [11] (vs control or rapamycin group) is “decreased significantly”. For the same compound, the ROS result in [4] (setting [12]) is “ROS was significantly induced”. In addition, in assay [10], the “proliferation of human T cells” value is on record as “inhibit proliferation of human T cells significantly” and the “number of divided T cells” value was “reduced the number of divided T cells”.
In the case of `N=C1Sc2ccccc2C2=NCCCN12` [PD404182, reference compound], in assay [11], the “inhibitory effect compared with other substances” value is given as “superior to the mTOR inhibitor rapamycin”, the “number of live cells” value was “the number of live cells declined” and the T cell proliferation entry is “can inhibit T cell proliferation”.
